Data: patent US9695155B2, “Herbicidal substituted pyrimidinyloxy benzene compounds” (E. I. DU PONT DE NEMOURS AND COMPANY, priority 2013, dated 2017)

What was measured:
giant foxtail [1] = assay: Test A postemergence; format: in vivo, Setaria faberii
Outline: (§1)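 Scoring: eye-based comparison with untreated controls, 0 for no effect through 100 for complete control, at about day 10. Treatments: directed soil spray preemergence; foliar spray postemergence on 2–10 cm plants at the one- to two-leaf stage. Medium: loam soil with sand.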

velvetleaf = assay: Test A preemergence; format: in vivo, Abutilon theophrasti
Outline: as §1

johnsongrass [2] = assay: Test C postemergence; format: in vivo, Sorghum halepense
Excerpt: (§2) Seeds of plant species selected from blackgrass (Alopecurus myosuroides), Italian ryegrass (Lolium multiflorum), wheat, winter (winter wheat, Triticum aestivum), galium (catchweed bedstraw, Galium aparine), corn (Zea mays), large (Lg) crabgrass (Digitaria sanguinalis), giant foxtail (Setaria faberii), johnsongrass (Sorghum halepense), lambsquarters (Chenopodium album), morningglory (Ipomoea coccinea), yellow nutsedge (Cyperus esculentus), pigweed (Amaranthus retroflexus), ragweed (common ragweed, Ambrosia elatior), soybean (Glycine max), barnyardgrass (Echinochloa crus-galli), oilseed rape (Brassica napus), waterhemp (common waterhemp, Amaranthus rudis), kochia (Kochia scoparia), wild oat (Avena fatua), surinam grass (Brachiaria decumbens), foxtail, green (green foxtail, Setaria viridis), goosegrass (Eleusine indica), bromegrass, downy (downy bromegrass, Bromus tectorum), nightshade (eastern black nightshade, Solanum ptycanthum), cocklebur (common cocklebur, Xanthium strumarium), cupgrass, woolly (woolly cupgrass, Eriochloa villosa), bermudagrass (Cynodon dactylon), sunflower, (common oilseed sunflower, Helianthus annuus), Russian thistle (Salsola kali), and velvetleaf (Abutilon theophrasti) were planted into a blend of loam soil and sand and treated preemergence with test chemicals formulated in a non-phytotoxic solvent mixture which included a surfactant.
(§3) At the same time, plants selected from these crop and weed species and also barley, winter (winter barley, Hordeum vulgare), windgrass (Apera spica-venti), chickweed (common chickweed, Stellaria media), deadnettle (henbit deadnettle, Lamium amplexicaule), and canarygrass (littleseed canarygrass, Phalaris minor) were planted in pots containing Redi-Earth® planting medium (Scotts Company, 14111 Scottslawn Road, Marysville, Ohio 43041) comprising spaghnum peat moss, vermiculite, wetting agent and starter nutrients and treated with postemergence applications of test chemicals formulated in the same manner. Plants ranged in height from 2 to 18 cm (1- to 4-leaf stage) for postemergence treatments. Treated plants and controls were maintained in a greenhouse for 13 to 15 days, after which time all species were compared to controls and visually evaluated. Plant response ratings, summarized in Table C, are based on a scale of 0 to 100 where 0 is no effect and 100 is complete control. A dash (-) response means no test result.

pigweed [3] = assay: Test A preemergence; format: in vivo, Amaranthus retroflexus
Outline: as §1

chickweed = assay: Test C postemergence; format: in vivo, Stellaria media
Excerpt: as §2, §3

kochia = assay: Test C postemergence; format: in vivo, Kochia scoparia
Excerpt: as §2, §3

ragweed = assay: Test C preemergence; format: in vivo, Ambrosia elatior; details: for Ragweed plant response rating: preemergence, scale 0 (no effect) to 100 (complete control)
Outline: (§4)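 Visual injury score versus untreated controls, 0 = no effect, 100 = complete control, taken 13 to 15 days after treatment in the greenhouse. Pre-emergence pots held loam/sand; post-emergence plants grew in sphagnum peat/vermiculite mix and were sprayed at the 1- to 4-leaf stage.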

pigweed [4] = assay: Test A postemergence; format: in vivo, Amaranthus retroflexus
Outline: as §1

corn [5] = assay: Test C postemergence; format: in vivo, Zea mays
Excerpt: as §2, §3

barnyardgrass = assay: Test A preemergence; format: in vivo, Echinochloa crus-galli
Outline: as §1

lambsquarters = assay: Test C preemergence; format: in vivo, Chenopodium album; details: for Lambsquarters plant response rating: preemergence, scale 0 (no effect) to 100 (complete control)
Outline: as §4

corn [6] = assay: Test A postemergence; format: in vivo, Zea mays
Outline: as §1

giant foxtail [7] = assay: Test C postemergence; format: in vivo, Setaria faberii
Excerpt: as §2, §3

large (Lg) crabgrass [8] = assay: Test A postemergence; format: in vivo, Digitaria sanguinalis
Outline: as §1

johnsongrass [9] = assay: Test C preemergence; format: in vivo, Sorghum halepense; details: for Johnsongrass plant response rating: preemergence, scale 0 (no effect) to 100 (complete control)
Outline: as §4

large (Lg) crabgrass [10] = assay: Test C preemergence; format: in vivo, Digitaria sanguinalis; details: for Crabgrass, Large plant response rating: preemergence, scale 0 (no effect) to 100 (complete control)
Outline: as §4

morningglory = assay: Test A postemergence; format: in vivo, Ipomoea spp.
Outline: as §1

galium = assay: Test C postemergence; format: in vivo, Galium aparine; details: for Plant response rating (0 to 100), Galium: 16 g ai/ha, 0 is no effect, 100 is complete control
Excerpt: as §2, §3

[11] = 125 g ai/ha, 0 to 100 scale where 0 is no effect and 100 is complete control
[12] = 500 g ai/ha, 0 to 100 scale, 0 no effect, 100 complete control
[13] = 500 g ai/ha, 0 to 100 scale, 0 no effect, 100 complete control, approx. 10 days
[14] = Postemergence, 31 g ai/ha, scale 0 to 100 (0 no effect, 100 complete control), 13 to 15 days
[15] = Postemergence, 62 g ai/ha, scale 0 to 100 (0 no effect, 100 complete control)
[16] = Preemergence, 31 g ai/ha, scale 0 to 100, 0 no effect, 100 complete control
[17] = 31 g ai/ha, 0 to 100 scale, 0 no effect, 100 complete control
[18] = 125 g ai/ha, postemergence, visual rating, scale 0 to 100 (0 no effect, 100 complete control)
[19] = 16 g ai/ha, postemergence, 0 is no effect, 100 is complete control
[20] = 1000 g ai/ha, 0 to 100 scale, 0 no effect, 100 complete control
[21] = 31 g ai/ha, postemergence, visual rating, scale 0 to 100 (0 no effect, 100 complete control), 13 to 15 days
[22] = 1000 g ai/ha, 0 to 100 scale, 0 no effect, 100 complete control, approx. 10 days

FC(F)(F)c1cnn(-c2ccccc2Oc2ncc(Cl)cn2)c1 [Compound 16]
Plant response rating, Foxtail, Giant (giant foxtail [1]; [11]): 100 | Plant response rating, Foxtail, Giant (giant foxtail [1]; [12]): 100 | Velvetleaf plant response rating (velvetleaf; [11]): 100 | Velvetleaf plant response rating (velvetleaf; [13]): 100 | Plant response rating (0 to 100), Johnsongrass (johnsongrass [2]; 125 g ai/ha, postemergence): 10 | Plant response rating (0 to 100), Johnsongrass (johnsongrass [2]; 250 g ai/ha, postemergence): 10 | Plant response rating, Johnsongrass (johnsongrass [2]; [14]): 0 | Plant response rating, Johnsongrass (johnsongrass [2]; [15]): 5 | Pigweed plant response rating (pigweed [3]; [11]): 100 | Pigweed plant response rating (pigweed [3]; [13]): 100 | Plant response rating (0 to 100), Chickweed (chickweed; 125 g ai/ha, postemergence): 75 | Plant response rating (0 to 100), Chickweed (chickweed; 250 g ai/ha, postemergence): 90 | Plant response rating, Chickweed (chickweed; [14]): 40 | Plant response rating, Chickweed (chickweed; [15]): 65 | Plant response rating (0 to 100), Kochia (kochia; 125 g ai/ha, postemergence): 98 | Plant response rating (0 to 100), Kochia (kochia; 250 g ai/ha, postemergence): 100 | Plant response rating, Kochia (kochia; [14]): 35 | Plant response rating, Kochia (kochia; [15]): 80 | Ragweed plant response rating (ragweed; 62 g ai/ha): 25 | Ragweed plant response rating (ragweed; 125 g ai/ha): 55 | Ragweed plant response rating (ragweed; 250 g ai/ha): 60 | Plant response rating, Ragweed (ragweed; [16]): 0 | Plant response rating, Pigweed (pigweed [4]; [11]): 100 | Plant response rating, Pigweed (pigweed [4]; [12]): 100 | Plant response rating (0 to 100), Corn (corn [5]; 125 g ai/ha, postemergence): 10 | Plant response rating (0 to 100), Corn (corn [5]; 250 g ai/ha, postemergence): 20 | Plant response rating, Corn (corn [5]; [14]): 5 | Plant response rating, Corn (corn [5]; [15]): 5 | Barnyardgrass plant response rating (barnyardgrass; [11]): 100 | Barnyardgrass plant response rating (barnyardgrass; [13]): 100 | Lambsquarters plant response rating (lambsquarters; 62 g ai/ha): 80 | Lambsquarters plant response rating (lambsquarters; 125 g ai/ha): 80 | Lambsquarters plant response rating (lambsquarters; 250 g ai/ha): 90 | Plant response rating, Lambsquarters (lambsquarters; [16]): 20 | Plant response rating, Corn (corn [6]; [11]): 70 | Plant response rating, Corn (corn [6]; [12]): 80 | Plant response rating (0 to 100), Foxtail, Giant (giant foxtail [7]; 125 g ai/ha, postemergence): 15 | Plant response rating (0 to 100), Foxtail, Giant (giant foxtail [7]; 250 g ai/ha, postemergence): 85 | Plant response rating, Foxtail, Giant (giant foxtail [7]; [14]): 5 | Plant response rating, Foxtail, Giant (giant foxtail [7]; [15]): 10 | Plant response rating, Crabgrass, Large (large (Lg) crabgrass [8]; [11]): 80 | Plant response rating, Crabgrass, Large (large (Lg) crabgrass [8]; [12]): 100 | Johnsongrass plant response rating (johnsongrass [9]; 62 g ai/ha): 85 | Johnsongrass plant response rating (johnsongrass [9]; 125 g ai/ha): 100 | Johnsongrass plant response rating (johnsongrass [9]; 250 g ai/ha): 100 | Plant response rating, Johnsongrass (johnsongrass [9]; [16]): 0 | Crabgrass, Large plant response rating (large (Lg) crabgrass [10]; 62 g ai/ha): 100 | Crabgrass, Large plant response rating (large (Lg) crabgrass [10]; 125 g ai/ha): 100 | Crabgrass, Large plant response rating (large (Lg) crabgrass [10]; 250 g ai/ha): 100 | Plant response rating, Crabgrass, Large (large (Lg) crabgrass [10]; [16]): 98 | Plant response rating, Morningglory (morningglory; [11]): 90 | Plant response rating, Morningglory (morningglory; [12]): 100

FCc1cccc(Oc2ncc(Br)cn2)c1-n1cc(C(F)(F)F)cn1 [Compound 120]
Plant response rating, Foxtail, Giant (giant foxtail [1]; [17]): 20 | Plant response rating, Foxtail, Giant (giant foxtail [1]; [11]): 70 | Plant response rating (0 to 100), Galium (galium; postemergence): 30 | Plant response rating, Galium (galium; [18]): 60 | Plant response rating, Galium (galium; [15]): 30 | Plant response rating (0 to 100), Johnsongrass (johnsongrass [2]; [19]): 0 | Plant response rating, Johnsongrass (johnsongrass [2]; [18]): 10 | Plant response rating, Johnsongrass (johnsongrass [2]; [15]): 5 | Pigweed plant response rating (0 to 100 scale) (pigweed [3]; 31 g ai/ha): 100 | Plant response rating, Pigweed (pigweed [3]; [11]): 100 | Plant response rating (0 to 100), Chickweed (chickweed; [19]): 40 | Plant response rating, Chickweed (chickweed; [18]): 80 | Plant response rating, Chickweed (chickweed; [15]): 70 | Plant response rating (0 to 100), Kochia (kochia; [19]): 75 | Plant response rating, Kochia (kochia; [18]): 100 | Plant response rating, Kochia (kochia; [15]): 95 | Plant response rating, Pigweed (pigweed [4]; [17]): 60 | Plant response rating (0 to 100), Corn (corn [5]; [19]): 5 | Plant response rating, Corn (corn [5]; [18]): 10 | Plant response rating, Corn (corn [5]; [15]): 5 | Barnyardgrass plant response rating (0 to 100 scale) (barnyardgrass; 31 g ai/ha): 20 | Plant response rating, Barnyardgrass (barnyardgrass; [11]): 70 | Plant response rating, Corn (corn [6]; [17]): 10 | Plant response rating, Corn (corn [6]; [11]): 50 | Plant response rating (0 to 100), Foxtail, Giant (giant foxtail [7]; [19]): 5 | Plant response rating, Foxtail, Giant (giant foxtail [7]; [18]): 35 | Plant response rating, Foxtail, Giant (giant foxtail [7]; [15]): 10

Fc1cccc(Oc2ncc(Cl)cn2)c1-n1cc(C2CC2)nn1 [Compound 155]
Plant response rating, Foxtail, Giant (giant foxtail [1]; [20]): 100 | Plant response rating (0 to 100), Galium (galium; postemergence): 75 | Galium plant response rating (galium; [21]): 95 | Plant response rating, Galium (galium; [18]): 100 | Plant response rating, Galium (galium; [15]): 98 | Plant response rating (0 to 100), Johnsongrass (johnsongrass [2]; [19]): 0 | Johnsongrass plant response rating (johnsongrass [2]; [21]): 0 | Plant response rating, Johnsongrass (johnsongrass [2]; [18]): 5 | Plant response rating, Johnsongrass (johnsongrass [2]; [15]): 5 | Pigweed plant response rating (pigweed [3]; [22]): 100 | Plant response rating (0 to 100), Chickweed (chickweed; [19]): 90 | Chickweed plant response rating (chickweed; [21]): 80 | Plant response rating, Chickweed (chickweed; [18]): 90 | Plant response rating, Chickweed (chickweed; [15]): 75 | Plant response rating (0 to 100), Kochia (kochia; [19]): 80 | Kochia plant response rating (kochia; [21]): 98 | Plant response rating, Kochia (kochia; [18]): 100 | Plant response rating, Kochia (kochia; [15]): 98 | Plant response rating, Pigweed (pigweed [4]; [20]): 100 | Plant response rating (0 to 100), Corn (corn [5]; [19]): 5 | Corn plant response rating (corn [5]; [21]): 5 | Plant response rating, Corn (corn [5]; [18]): 10 | Plant response rating, Corn (corn [5]; [15]): 5 | Barnyardgrass plant response rating (barnyardgrass; [22]): 100 | Plant response rating, Corn (corn [6]; [20]): 100 | Plant response rating (0 to 100), Foxtail, Giant (giant foxtail [7]; [19]): 0 | Foxtail, Giant plant response rating (giant foxtail [7]; [21]): 5 | Plant response rating, Foxtail, Giant (giant foxtail [7]; [18]): 25 | Plant response rating, Foxtail, Giant (giant foxtail [7]; [15]): 15
